These results are taken from patent US6187787A, “Bis(9-aminoacridine) DNA intercalating agents having antitumor activity” (Trustees of Dartmouth College, priority 2000, dated 2001).

In general, ΔTm refers to the change in melting temperature against a reference sample.

SMILES strings stand for the structures.

The first test relates to calf thymus DNA. The test is described as follows: Thermal denaturation studies on calf thymus DNA. It is filed as binding. The conditions noted are these: increase of denaturation temperature. The protocol:
Thermal denaturation studies were performed on calf thymus DNA. Addition of the compounds of the present invention to the calf thymus DNA caused the denaturation temperature to increase approximately 11° C. (see Table 1).
As for `c1ccc2c(NC3CCC(CC4CCC(Nc5c6ccccc6nc6ccccc56)CC4)CC3)c3ccccc3nc2c1` (centres unmarked), the ΔTm came to 25.9 ± 4.1 °C.
The same measure, in the same setting: next, `CC(C)(c1ccc(Oc2ccc(Nc3c4ccccc4nc4ccccc34)cc2)cc1)c1ccc(Oc2ccc(Nc3c4ccccc4nc4ccccc34)cc2)cc1`: 11.6 ± 0.4 °C; `CC(C)(c1ccc(Nc2c3ccccc3nc3ccccc23)cc1)c1ccc(C(C)(C)c2ccc(Nc3c4ccccc4nc4ccccc34)cc2)cc1`: 10.9 ± 0.31 °C.

The test system of the next test is DNA.
Assay: not given
Conditions: DNA binding characteristics of acridine dimers, Le Pecq et al. 1975; cited from earlier work.
With `COc1ccc2nc3cc(Cl)ccc3c(NCCCNCCCCNCCCNc3c4ccc(Cl)cc4nc4ccc(OC)cc34)c2c1` [IIA], the “mode of intercalation (bis- or monofunctional)” value (“mode of intercalation” below) is recorded as “bisintercalated”.
With `COc1ccc2nc3cc(Cl)ccc3c(NCCCCNCCCNc3c4ccc(Cl)cc4nc4ccc(OC)cc34)c2c1` [IIB], the “mode of intercalation” value was “bisintercalated”.
For the compound `COc1ccc2nc3cc(Cl)ccc3c(NCCCNCCCNc3c4ccc(Cl)cc4nc4ccc(OC)cc34)c2c1` [III], the “mode of intercalation” value is reported as “only one of the two rings of the dimer with the shortest chain (III) of 9 angstroms was intercalated”.

The subject of a further test is L1210 murine leukemia cells. The test is described as follows: Cytotoxicity in the murine leukemia cell line L1210 (growth inhibition, 72 hours). Type of test: cell-based. Conditions: Mus musculus, L1210, 72 h, read-out: ID50. As for the experimental part:
Using the methodologies disclosed by Jaycox et al. J. Heterocyclic. […] A number of intercalating agents currently in clinical use for treatment of cancer were also evaluated in this assay for comparison.
L1210 murine leukemia cells were routinely maintained as suspension cultures in McCoy's 5A medium supplemented with 10% horse serum, glutamine, penicillin, and streptomycin and grown in a humidified environment of 10% carbon dioxide and 90% air at 37° C. Compounds were dissolved in dimethyl sulfoxide (DMSO) and 40 μg was added to 4 ml of L1210 cells (10^5 cells/tube) to attain final drug concentrations of 0.01, 0.1 and 10 μg/ml of culture. After 72 hours of continuous exposure to the drug, the cell concentration was determined by a Coulter counter (Model ZBF, Hialeah, Fla.). Growth inhibition was calculated for each drug concentration using the following formula:
% growth inhibition=(1-A)×100, wherein A=[cell # treated/cell # in
The growth inhibition data were then used to calculate the ID50 value (the calculated drug concentration required to inhibit cell growth by 50% of control).
Consider `Cn1cc(NC(=O)c2cc(NC(=O)c3cc(NC=O)cn3C)cn2C)cc1C(=O)NCCC(=N)N` [distamycin-A, reference compound], for which the IC50 was 6000 nM.
With `CC[n+]1c(-c2ccccc2)c2cc(N)ccc2c2ccc(N)cc21` [ethidium bromide, reference compound], the IC50 amounted to 4100 nM.

Still in this test, the particulars now being: Mus musculus; L1210 murine leukemia; 72 hours of continuous exposure; concentration which inhibits growth of 50% of the cells; read-out: ID50 (the source's name).
On to `c1ccc2c(N[C@H]3CC[C@@H](C[C@H]4CC[C@@H](Nc5c6ccccc6nc6ccccc56)CC4)CC3)c3ccccc3nc2c1`, for which the IC50 was 440 nM.
Same read-out and setting: next, `c1ccc2c(N[C@H]3CC[C@@H](C[C@H]4CC[C@H](Nc5c6ccccc6nc6ccccc56)CC4)CC3)c3ccccc3nc2c1`: 560 nM; `c1ccc2c(N[C@H]3CC[C@H](C[C@H]4CC[C@H](Nc5c6ccccc6nc6ccccc56)CC4)CC3)c3ccccc3nc2c1`: 500 nM; `CC(C)(c1ccc(Oc2ccc(Nc3c4ccccc4nc4ccccc34)cc2)cc1)c1ccc(Oc2ccc(Nc3c4ccccc4nc4ccccc34)cc2)cc1`: 5400 nM.
The same measure, in the same setting: next, `CC(C)(c1ccc(Nc2c3ccccc3nc3ccccc23)cc1)c1ccc(C(C)(C)c2ccc(Nc3c4ccccc4nc4ccccc34)cc2)cc1`: greater than 13000 nM; `c1cc(Nc2c3ccccc3nc3ccccc23)cc(Oc2cccc(Oc3cccc(Nc4c5ccccc5nc5ccccc45)c3)c2)c1`: 5900 nM; `Cc1cc2cccnc2c2ncccc12` [5-methyl-1,10-phenanthroline, reference compound]: 2000 nM.
With `Nc1c2ccccc2nc2ccccc12` [9-aminoacridine], the IC50 came out at 2300 nM.
Consider `Cc1c2ccncc2c(C)c2c1[nH]c1ccccc12` [ellipticine, reference compound], for which the IC50 was determined as 530 nM.
